# Data reported in patent US7531568B2, “PPAR active compounds” (Plexxikon, Inc., priority 2004, dated 2009).
# Legend:
# PPARδ [1] = target: T1, PPARδ (Homo sapiens, UniProt Q03181); assay: homogenous Alpha screen assay, agonist mode, coactivator Biotin-PGC-1 peptide recruitment; assay type: biochemical; details: His-tagged PPAR-LBD 10 nM, 25 nM biotin-PGC-1 peptide, 1 hour room temperature; read-out: EC50 with respect to PPARδ
# T1 construct: P1057. pET BAM6 PPARD G165-Y441-X; made in house; host or cells: E. coli BL21(DE3)RIL
# T1 sequence (Q03181 with tags, fused parts or gaps): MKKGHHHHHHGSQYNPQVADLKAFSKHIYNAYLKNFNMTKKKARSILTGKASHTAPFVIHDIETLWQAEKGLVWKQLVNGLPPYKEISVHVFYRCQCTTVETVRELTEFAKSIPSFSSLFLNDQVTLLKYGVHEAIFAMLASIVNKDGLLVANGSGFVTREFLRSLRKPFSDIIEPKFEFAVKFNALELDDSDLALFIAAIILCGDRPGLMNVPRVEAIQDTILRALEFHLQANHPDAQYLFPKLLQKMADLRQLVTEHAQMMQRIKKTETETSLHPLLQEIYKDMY
# Text: (§1) Plasmids encoding the Ligand-binding domains (LBDs) of PPARα, PPARγ, and PPARδ were engineered using common polymerase chain reaction (PCR) methods (pGal4-PPARα-LBD, pGal4-PPARγ-LBD, pGal4-PPARδ-LBD). The relevant DNA sequences and encoded protein sequences used in the assay are shown for each (see below). Complementary DNA cloned from various human tissues was purchased from Invitrogen, and these were used as substrates in the PCR reactions. Specific custom synthetic oligonucleotide primers (Invitrogen, see below) were designed to initiate the PCR product, and also to provide the appropriate restriction enzyme cleavage sites for ligation with the plasmids.
# For PPARδ protein expression, single colonies were grown for 4 hrs at 37° C. in 200 mL LB media. 16×1 L of fresh TB media in 2.8 L flasks were inoculated with 10 mL of starter culture and grown with constant shaking at 37° C. […] Cells were harvested by centrifugation and pellets frozen at −80° C. until ready for lysis/purification. […]
# (§2) The homogenous Alpha screen assay was used in the agonist mode to determine the ligand dependent interaction of the PPARs (α,δ,γ) with the coactivator Biotin-PGC- 1 peptide (biotin-AHX-[…]-CONH2 (SEQ ID NO: 13), supplied by Wyeth). […] The samples were incubated for 1 hour in the dark at room temperature before taking the reading in the Fusion alpha or Alpha Quest reader. […]
# PPARγ = target: T2, PPARγ (Homo sapiens, UniProt P37231); assay: as above; assay type: biochemical; details: His-tagged PPAR-LBD 20 nM, 25 nM biotin-PGC-1 peptide, 1 hour room temperature; read-out: EC50 with respect to PPARγ
# T2 sequence (P37231 with tags, fused parts or gaps): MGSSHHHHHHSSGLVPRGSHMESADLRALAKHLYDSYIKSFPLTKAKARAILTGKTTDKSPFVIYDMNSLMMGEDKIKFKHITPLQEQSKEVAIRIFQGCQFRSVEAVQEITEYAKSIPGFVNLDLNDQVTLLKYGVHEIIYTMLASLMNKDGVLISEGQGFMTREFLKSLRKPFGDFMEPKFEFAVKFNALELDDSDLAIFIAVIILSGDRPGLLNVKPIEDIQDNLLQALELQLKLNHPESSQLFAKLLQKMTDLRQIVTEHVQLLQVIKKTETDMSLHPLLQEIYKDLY
# Text: as §1
# For protein expression, plasmids containing genes of interest were transformed into E. coli strain BL21(DE3)RIL (Invitrogen) and transformants selected for growth on LB agar plates containing appropriate antibiotics. Single colonies were grown for 4 hrs at 37° C. in 200 ml LB media. […]. […]
# as §2
# [2] = recent large prospective trial; cited from earlier work
# murine PPARα = target: T3, murine PPARα (Mus musculus, UniProt P23204); details: cited from earlier work
# T3 sequence (P23204 1-468): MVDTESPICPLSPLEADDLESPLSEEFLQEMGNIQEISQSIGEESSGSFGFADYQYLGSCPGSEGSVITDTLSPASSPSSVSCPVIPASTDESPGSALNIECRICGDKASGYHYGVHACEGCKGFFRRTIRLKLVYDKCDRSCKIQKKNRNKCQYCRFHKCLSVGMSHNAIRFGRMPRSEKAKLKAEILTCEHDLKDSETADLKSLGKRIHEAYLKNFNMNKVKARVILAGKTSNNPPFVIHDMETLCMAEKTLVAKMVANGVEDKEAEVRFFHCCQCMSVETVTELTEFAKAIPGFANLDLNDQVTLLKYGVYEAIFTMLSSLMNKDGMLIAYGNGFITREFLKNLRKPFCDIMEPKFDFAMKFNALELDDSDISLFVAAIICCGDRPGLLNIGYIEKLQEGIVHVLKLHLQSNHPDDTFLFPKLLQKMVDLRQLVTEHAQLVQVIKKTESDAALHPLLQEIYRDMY
# PPARδ [3] = target: T4, PPARδ (Homo sapiens, UniProt Q03181); details: cited from earlier work
# T4 sequence (Q03181 1-441): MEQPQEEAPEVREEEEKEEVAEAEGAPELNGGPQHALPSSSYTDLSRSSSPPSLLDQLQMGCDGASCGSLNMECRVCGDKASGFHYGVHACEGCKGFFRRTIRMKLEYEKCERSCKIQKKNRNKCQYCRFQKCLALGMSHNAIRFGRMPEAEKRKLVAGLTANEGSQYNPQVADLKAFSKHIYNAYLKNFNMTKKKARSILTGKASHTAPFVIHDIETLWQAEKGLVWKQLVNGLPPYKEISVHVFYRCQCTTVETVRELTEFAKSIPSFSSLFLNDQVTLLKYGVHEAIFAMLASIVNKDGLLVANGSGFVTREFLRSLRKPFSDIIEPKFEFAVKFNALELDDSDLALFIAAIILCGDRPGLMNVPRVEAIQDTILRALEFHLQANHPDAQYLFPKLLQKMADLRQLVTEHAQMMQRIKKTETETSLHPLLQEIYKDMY
smiles,measurement,setting,value
"COc1ccc2c(c1)c(SCC(=O)O)cn2S(=O)(=O)c1ccc(Cl)c(Cl)c1 [Compound 27, [1-(3,4-dichloro-benzenesulfonyl)-5-methoxy-1H-indol-3-ylsulfanyl]-acetic acid]",EC50,PPARδ [1],< 1000 nM
same,EC50,PPARγ,< 1000 nM
Cc1ccc(C)c(OCCCC(C)(C)C(=O)O)c1 [gemfibrozil],reduction in cardiovascular events or death,[2],22%
CCCc1c(OCCCOc2ccc(OCC(=O)O)cc2)ccc(C(C)=O)c1O [Compound L-165041],activity on murine PPARα,murine PPARα,inactive
same,agonist selectivity for PPARδ over PPARγ,PPARδ [3],approximately 30 fold
